Calls of active or inactive are those of the source. The rule behind the calls is not given here. Bridge positions count the residues as written; N and C are the ends. Square brackets hold non-standard residues; d marks the D form. Peptide text beside a SMILES is read from it. * marks the point of attachment. ξ: configuration not given here. d(aIle) = CC[C@H](C)[C@@H](N)C(=O)O; d(aThr) = C[C@@H](O)[C@@H](N)C(=O)O; X1 = CCCCCCCCCCCC(O)CC(=O)*; ξL = CC(C)CC(N)C(=O)O
target: Ubiquitin carboxyl-terminal hydrolase 8 (Homo sapiens) (UniProt P40818); experiment: Ubiquitin-specific protease 8 inhibitors, concentration-effect, biochemical, validation of initial actives (AID 1645862); details: recombinant USP8 deubiquitinase activity assay;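 note: potency reflects inhibition of USP8 cleavage of a ubiquitin rhodamine substrate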
Sequence (P40818 whole entry, looked up): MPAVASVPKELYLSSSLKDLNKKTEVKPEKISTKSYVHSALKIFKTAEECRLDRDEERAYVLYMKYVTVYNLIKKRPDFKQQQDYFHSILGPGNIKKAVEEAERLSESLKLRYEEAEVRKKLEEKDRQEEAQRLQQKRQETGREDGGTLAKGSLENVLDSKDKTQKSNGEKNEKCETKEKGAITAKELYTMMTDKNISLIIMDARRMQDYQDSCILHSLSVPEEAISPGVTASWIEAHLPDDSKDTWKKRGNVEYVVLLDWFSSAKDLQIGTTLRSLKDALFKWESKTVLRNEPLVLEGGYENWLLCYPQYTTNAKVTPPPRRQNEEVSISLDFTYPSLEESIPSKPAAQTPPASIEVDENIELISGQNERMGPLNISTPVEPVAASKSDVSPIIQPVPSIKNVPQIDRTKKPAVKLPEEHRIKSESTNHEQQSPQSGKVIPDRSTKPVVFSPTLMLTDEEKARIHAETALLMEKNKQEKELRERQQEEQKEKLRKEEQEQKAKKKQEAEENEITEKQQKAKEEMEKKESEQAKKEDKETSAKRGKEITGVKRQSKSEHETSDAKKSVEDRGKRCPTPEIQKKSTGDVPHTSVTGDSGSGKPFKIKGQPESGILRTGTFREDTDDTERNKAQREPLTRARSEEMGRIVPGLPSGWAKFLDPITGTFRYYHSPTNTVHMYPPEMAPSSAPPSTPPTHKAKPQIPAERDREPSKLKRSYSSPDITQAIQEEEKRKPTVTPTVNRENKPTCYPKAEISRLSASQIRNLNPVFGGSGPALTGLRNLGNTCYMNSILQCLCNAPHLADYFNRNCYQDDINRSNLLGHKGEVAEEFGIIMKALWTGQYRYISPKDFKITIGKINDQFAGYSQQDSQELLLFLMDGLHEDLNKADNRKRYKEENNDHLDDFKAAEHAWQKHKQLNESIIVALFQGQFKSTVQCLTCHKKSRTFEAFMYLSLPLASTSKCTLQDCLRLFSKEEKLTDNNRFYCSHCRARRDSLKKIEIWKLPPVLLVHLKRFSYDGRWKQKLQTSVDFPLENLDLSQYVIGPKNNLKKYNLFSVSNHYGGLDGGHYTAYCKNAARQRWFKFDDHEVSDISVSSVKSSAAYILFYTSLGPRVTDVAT

IC50	Compound
> 40 µM (inactive)	O=C(Nc1ccc(Cn2cnc(-c3nc(-c4ccccc4)no3)c2)cc1)c1ccccc1F
> 40 µM (inactive)	COc1cc2c(=O)n(Cc3ccccc3)c(=O)n(CC(=O)N3CCCc4ccccc43)c2cc1OC
> 40 µM (inactive)	COc1ccc(CCNC(=O)Cn2c(=O)c3sccc3n(Cc3cccc([N+](=O)[O-])c3)c2=O)cc1OC
> 40 µM (inactive)	O=C(NCc1ccccc1Cl)C1CCN(c2ccc(-c3ccccc3)nn2)CC1
> 40 µM (inactive)	COc1cccc(CNC(=O)c2nnn(CC(=O)Nc3cc(C)ccc3C)c2N)c1
> 40 µM (inactive)	Cc1ccc(-n2nc(C(=O)Nc3ccc(C)cn3)c3ncn(C)c(=O)c32)cc1
> 40 µM (inactive)	COC(=O)c1ccc(Cn2nnc3c(=O)[nH]c(C4CCCN(S(=O)(=O)c5ccc(C)cc5)C4)nc32)cc1 (stereo not given)
> 40 µM (inactive)	O=C(Cn1nc(-c2ccccc2)cc(NC(=O)c2ccccc2)c1=O)Nc1ccc(F)cc1
> 40 µM (inactive)	O=C(CSc1nc(=O)n(Cc2ccncc2)c2c1CCC2)NCCc1ccccc1
> 40 µM (inactive)	COc1ccc(NS(=O)(=O)c2cc(NC(=O)CC(=O)c3ccc([N+](=O)[O-])cc3)ccc2Cl)cc1
> 40 µM (inactive)	COc1ccc(-c2n[nH]n3c2nc(=O)c2ccc(C(=O)NCc4ccco4)cc23)cc1
> 40 µM (inactive)	Cc1ccccc1-c1noc(-c2cn(Cc3ccc(NC(=O)Cc4ccccc4)cc3)cn2)n1
9.25 µM	CCOc1ccc2cc3c(nc2c1)OC(=O)N(Cc1ccc(OC)cc1)C3
> 40 µM (inactive)	Cc1ccccc1NC(=O)Cc1csc2nc(-c3ccc(F)cc3)cn12
> 40 µM (inactive)	Cc1ccc(-n2c(=O)c3ccc(C(=O)NCc4ccco4)cc3n(CC(=O)NCCC3=CCCCC3)c2=O)cc1
> 40 µM (inactive)	CC1(C(=O)NCc2ccc(F)cc2)Cn2nc(-c3ccco3)cc2C(=O)N1c1ccc2c(c1)OCCO2 (stereo not given)
> 40 µM (inactive)	COc1ccc(Cl)cc1NC(=O)Cn1c(=O)n(CCC(=O)NC2CCCC2)c(=O)c2ccccc21
> 40 µM (inactive)	N#Cc1ccc(NC(=O)Nc2cccn(Cc3c(F)cccc3Cl)c2=O)cc1
> 40 µM (inactive)	COc1cccc(-n2cnc3cc(C(=O)NCCc4ccccc4)ccc3c2=O)c1
> 40 µM (inactive)	O=C(CCCn1c(=O)c2ccccc2n(CC(=O)c2ccc(Br)cc2)c1=O)NC1CCCC1
> 40 µM (inactive)	CC(=O)c1ccc(N2CCN(S(=O)(=O)c3cc4c(cc3C)NC(=O)CO4)CC2)cc1

Further lines, the compound ahead of its results:

Compound	IC50
Cc1cccc(OCC2=NN3C(=N)/C(=C\c4cc(C)n(-c5cc(C)cc(C)c5)c4C)C(=O)N=C3S2)c1	> 40 µM (inactive)
CC(NC(=O)c1ccccc1)c1nc2ccccc2n1CC(=O)Nc1ccc(F)cc1 (stereo not given)	> 40 µM (inactive)
Cc1cc(C)c(NC(=O)Cn2c(SCc3cccc(F)c3)nc3cccnc32)c(C)c1	> 40 µM (inactive)
COc1ccc(NC(=O)[C@H](C)NC(=O)c2cc3c(OC)cccc3[nH]2)cc1Cl	> 40 µM (inactive)
Brc1ccc(Nc2nc(-c3ccccn3)nc3ccccc23)cc1	16.6 µM
CC(c1ccccc1)N1CC(O)=C(c2nc3ccccc3s2)C1=N (stereo not given)	> 40 µM (inactive)
COc1cc2c(oc(=O)c3cc(C)cc(OC)c32)c2c([C@@H]3OC(C)[C@@H](O)[C@@](C)(O)C3O)ccc(O)c12 (stereo not given in full)	> 40 µM (inactive)
CCc1nnc(-c2ccc3ccn(CC(=O)N4CCN(c5ccccn5)CC4)c3c2)o1	> 40 µM (inactive)
CCCCCCCCCCCC(O)CC(=O)N[C@@H](CC(C)C)C(=O)N[C@H](CCC(=O)O)C(=O)N[C@H]1C(=O)N[C@H]([C@@H](C)CC)C(=O)NC(CC(C)C)C(=O)N[C@H](CO)C(=O)N[C@@H](CC(C)C)C(=O)N[C@@H](CC(C)C)C(=O)N[C@H](CO)C(=O)N[C@@H](C(C)C)C(=O)O[C@@H]1C (stereo not given in full) (X1-L[dE][d(aThr)][d(aIle)][ξL][dS]LL[dS]V; ester 3-C)	> 40 µM (inactive)
O=C(Cn1c(COc2ccccc2)nc2ccccc21)Nc1cc(Cl)ccc1Cl	> 40 µM (inactive)
O=c1c(S(=O)(=O)c2cc(F)cc(F)c2)c[nH]c2cc(Cl)ccc12	25.6 µM
O=C(CCCCn1c(=O)[nH]c2ccccc2c1=O)Nc1cccc(Cl)c1	> 40 µM (inactive)
NS(=O)(=O)c1ccc(CNS(=O)(=O)/C=C/c2ccccc2)cc1	> 40 µM (inactive)
CN(C)[C@@H]1C(=O)C(C(N)=O)=C(O)[C@@]2(O)C(=O)C3=C(O)c4c(O)cccc4[C@@](C)(O)C3[C@H](O)[C@@H]12 (stereo not given in full)	0.702 µM
CC(C)Cc1nc2sc3c(SCC(=O)N4CCC(C)CC4)ncnc3c2c2c1COC(C)(C)C2	> 40 µM (inactive)
O=C(/C=C/c1ccc(F)cc1)N1CCc2ccccc2C1	26 µM
COc1cccc(NC(=O)c2oc3ccccc3c2NC(=O)COc2cccc(OC)c2)c1	> 40 µM (inactive)
COc1ccc(NC2c3ccccc3C(=O)N2c2ccccn2)cc1 (stereo not given)	> 40 µM (inactive)
CCOc1ccc(Oc2nc(CN3CCCC3)nc3sc(C)c(C)c23)cc1	> 40 µM (inactive)
O=C(NCc1ccc2c(c1)OCO2)c1cc2c(s1)-c1ccccc1OC2	> 40 µM (inactive)

Compound	IC50
O=C(c1ccc2c(c1)OCO2)[C@@H]1[C@H](C(=O)OC(c2ccccc2)c2ccccc2)N2c3ccccc3C=CC2[C@@]12C(=O)Nc1ccccc12 (stereo not given in full)	> 40 µM (inactive)
COc1ccccc1-c1noc(CCCC(=O)Nc2ccccc2)n1	> 40 µM (inactive)
Cc1nc(-c2noc(-c3cccc(F)c3)n2)cn1CC(=O)Nc1ccccc1	39.2 µM
O=C(COC(=O)c1cc2c(s1)CCC2)c1ccc2[nH]c(=O)[nH]c2c1	> 40 µM (inactive)
O=C(Nc1cccnc1)C1c2ccccc2C(=O)N(c2ccccc2)C12CCCCC2 (stereo not given)	> 40 µM (inactive)
Cc1ccc(Nc2nc(O)c(CC(=O)Nc3cccc(Cl)c3C)s2)cc1C	> 40 µM (inactive)
O=C(COc1ccccc1)Nc1ccc(-c2nc3cnccc3o2)c(O)c1	> 40 µM (inactive)
Cc1cc(N2CCN(c3ncccn3)CC2)nc2ccc(NC(=O)Cn3nc([N+](=O)[O-])c(Br)c3C)cc12	> 40 µM (inactive)
O=C(Cn1cc(C(=O)C(F)(F)F)c2cc(Br)ccc21)N1CCc2ccccc21	> 40 µM (inactive)
Cc1ccc(NC(=O)c2cc(-c3ccncc3)n[nH]2)cc1Cl	> 40 µM (inactive)
COCCCN1CCS(=O)(=O)c2c(Cl)c(F)nc(Oc3ccccc3F)c21	> 40 µM (inactive)
CC1=C(Cn2c3cccc(=O)c-3nc3ccccc32)CCC(C)(C)C1	1.71 µM
Cc1nc2cc(-c3noc(-c4cccc5[nH]ccc45)n3)ccc2o1	> 40 µM (inactive)
COc1ccc(Sc2nc3ccccc3n3cnnc23)cc1	32.7 µM
CCOc1ccc(NC(=O)Cn2c(=O)n(CCC(=O)NCc3ccco3)c(=O)c3ccccc32)cc1	> 40 µM (inactive)
O=c1cc(-c2ccc(O)c(O)c2)oc2cc(O[C@@H]3O[C@H](CO)[C@@H](O)[C@H](O)[C@H]3O)cc(O)c12	2.01 µM
CC(C)=CCOC(C)(C)[C@H]1OC2CC[C@@]3(C)C(CCC4Cc5c([nH]c6ccccc56)[C@@]43C)C23OC3[C@@H]1O (stereo not given in full)	35 µM
O=C(Nc1nc2c(ccc3ccccc32)s1)c1cccc(Br)c1	> 40 µM (inactive)
O=C(CSc1nc2cc(C(F)(F)F)ccc2s1)NCC(=O)c1ccccc1	> 40 µM (inactive)
